Tests used:
Format in all cases: cell-based
CRABP2 [1] = assay: CRABP2 gene expression (qPCR) in primary human dermal fibroblasts; details: 30 hours of treatment, normalized against POLR2A, concentration given by sample
Procedure: (§1) CRAPB2, IL8 and HAS2 were evaluated in several samples containing fermented oat, retinol, and combinations of the two in varying amounts. Retinol (BASF, 50C) was prepared by dissolving Retinol in Dimethyl Sulfoxide (DMSO) for a concentration of 20% Retinol. Retinol was then further diluted in DMEM with GlutaMAX media supplemented with 1% FBS and 1X Penn/Strep for a stock concentration of (1.1×10^−4) % and (1.1×10^−5) % Retinol. […] Fermented Oat (aurafirm P, Oat Cosmetics, Hampshire, United Kingdom; INCI Aqua, Avena sativa (Oat) Kernel Extract, Lactobacillus Ferment, Sodium Benzoate, Potassium Sorbate) was diluted in media to provide 0.2% and 1.0% Fermented Oat solutions. Primary human dermal fibroblasts were acquired from Lifeline Cell Technology, LLC (Frederick, MD 21701; lot 0967). The donor demographics were as follows: person, fibroblasts isolated from breast. Fibroblasts were cultured and expanded using Dermal Fibroblast Culture Medium (Zenbio, Inc, Durham, NC 27713). […] The cDNA was evaluated by qPCR (using the QuantStudio™ 7 Flex Real-Time PCR System from Applied Biosystems, Waltham, MA). […] The fold changes were calculated in comparison to the untreated control and two-tailed two-sample Student t-tests (Microsoft Office Excel 2007; Microsoft, Redmond, WA, USA) were performed. […]

HAS2 = HAS2 gene expression (qPCR) in primary human dermal fibroblasts; details: 30 hours of treatment, normalized against POLR2A, concentration given by sample
Procedure: as §1

IL8 [2] = assay: IL8 gene expression (qPCR) in primary human dermal fibroblasts; details: 30 hours of treatment, normalized against POLR2A, concentration given by sample
Procedure: as §1

HAS3 = HAS3 gene expression (qPCR) in human skin explants; details: human abdominal skin explants, topical 4 μL in PgETOH, 48 hours
Procedure: (§2) Propylene glycol/ethanol (PgETOH) (3:7) (w/w) was used as a vehicle. 1% Colloidal oat (Avena Sativa Kernel Flour, Oat Cosmetics, Southampton, United Kingdom) and 0.1% Retinol solutions were each prepared in PgETOH as shown in Tables 4-7. Combinations were prepared by adding the appropriate amount of test solutions to arrive at the final concentrations as shown. Abdominal skin samples were obtained from human adults undergoing abdominoplasty surgery. Informed consent was obtained from each patient, and all experimental steps were approved by an institutional review board (IRB). Subcutaneous fat was carefully removed and skin biopsies of 0.93 cm^2 were prepared under sterile conditions and acclimated in DMEM/F12 (1:1) medium, 2% heat-inactivated fetal bovine serum, 10 μg/mL insulin, 10 ng/mL hydrocortisone, 10 ng/mL EGF, 1x ABAM under a 5% CO2 humidified atmosphere overnight. Skin explants were treated topically with 4 μL of each formulation for 48 hours. […] The fold changes were calculated in comparison to the untreated or vehicle controls and two-tailed two-sample Student t-tests (Microsoft Office Excel 2007; Microsoft, Redmond, WA, USA) were performed. Synergies were calculated as described above. […]

IL8 [3] = assay: IL8 gene expression (qPCR) in human skin explants; details: human abdominal skin explants, topical 4 μL in PgETOH, 48 hours
Procedure: Propylene glycol/ethanol (PgETOH) (3:7) (w/w) was used as a vehicle. 1% Colloidal oat (Avena Sativa Kernel Flour, Oat Cosmetics, Southampton, United Kingdom) and 0.1% Retinol solutions were each prepared in PgETOH as shown in Tables 4-7. Combinations were prepared by adding the appropriate amount of test solutions to arrive at the final concentrations as shown.
Abdominal skin samples were obtained from human adults undergoing abdominoplasty surgery. Informed consent was obtained from each patient, and all experimental steps were approved by an institutional review board (IRB). Subcutaneous fat was carefully removed and skin biopsies of 0.93 cm^2 were prepared under sterile conditions and acclimated in DMEM/F12 (1:1) medium, 2% heat-inactivated fetal bovine serum, 10 μg/mL insulin, 10 ng/mL hydrocortisone, 10 ng/mL EGF, 1x ABAM under a 5% CO2 humidified atmosphere overnight. Skin explants were treated topically with 4 μL of each formulation for 48 hours. […]
Reverse transcription (RT) was performed using the Applied Biosystems High Capacity Reverse Transcription Kit (ThermoFisher Scientific, Bridgewater, NJ). […] The fold changes were calculated in comparison to the untreated or vehicle controls and two-tailed two-sample Student t-tests (Microsoft Office Excel 2007; Microsoft, Redmond, WA, USA) were performed. Synergies were calculated as described above. […]

HBEGF = HBEGF gene expression (qPCR) in human skin explants; details: human abdominal skin explants, topical 4 μL in PgETOH, 48 hours
Procedure: as §2

CRABP2 [4] = assay: CRABP2 gene expression (qPCR) in human skin explants; details: human abdominal skin explants, topical 4 μL in PgETOH, 48 hours
Procedure: as §2

SMILES | CRABP2 Average Fold Change over untreated (CRABP2 [1]) | HAS2 Average Fold Change over untreated (HAS2) | IL8 Average Fold Change over untreated (IL8 [2]) | HAS3 Average Fold Change over untreated (HAS3) | IL8 Average Fold Change over untreated (IL8 [3]) | HBEGF Average Fold Change over untreated (HBEGF) | CRABP2 Average Fold Change over untreated (CRABP2 [4])
CC1=C(/C=C/C(C)=C/C=C/C(C)=C/CO)C(C)(C)CCC1 [Sample 1-2, Retinol] | 1.44 fold | 0.79 fold | 2.05 fold | – | – | – | –
CC1=C(/C=C/C(C)=C/C=C/C(C)=C/CO)C(C)(C)CCC1 [Sample 1-3, Retinol] | 4.25 fold | 0.50 fold | 18.83 fold | – | – | – | –
CC1=C(/C=C/C(C)=C/C=C/C(C)=C/CO)C(C)(C)CCC1 [Sample 2-3, Retinol] | – | – | – | 3.05 fold | 2.30 fold | 3.50 fold | 3.95 fold

Reference: patent US20260224465A1, “COMPOSITIONS COMPRISING A RETINOID AND A PROCESSED OAT INGREDIENT” (Kenvue Brands LLC, priority 2023, published 2026)
